Converted amounts (≈) assume the structure as drawn.
Columns and labels:
[1] = Inhibition of monoclonal antibody ADP358/HIV1 gp120 interaction at 16 mg/mL
[2] = Inhibition of monoclonal antibody ADP358/HIV1 gp120 interaction at 3.2 mg/mL
[3] = Cytotoxicity against human C8166 cells by XTT assay; assay type: cell-based; conditions: read-out: TC50 (the source's name)
[4] = Inhibition of monoclonal antibody ADP358/HIV1 gp120 interaction at 80 mg/mL
[5] = Inhibition of monoclonal antibody ADP358/HIV1 gp120 interaction at 400 mg/mL
[6] = tested on: Human immunodeficiency virus 1; assay: Antiviral activity against HIV1 MN in human C8166 cells assessed as reduction of antigen gp120 production by ELISA; assay type: functional, organism-based; conditions: Human immunodeficiency virus 1, MN
[7] = tested on: Human immunodeficiency virus 1; assay: Antiviral activity against HIV1 3B in human C8166 cells assessed as neutralization of virus infectivity treated prior infection measured after 60 mins at 37 degC; assay type: functional
[8] = Inhibition of HIV1 recombinant gp120/sCD4 interaction by ELISA
[9] = Selectivity index, ratio of […] for human […] cells
[10] = Inhibition of monoclonal antibody ADP358/HIV1 gp120 interaction at 500 mg/mL
[11] = Inhibition of monoclonal antibody ADP358/HIV1 gp120 interaction at 20 mg/mL
[12] = Inhibition of monoclonal antibody ADP358/HIV1 gp120 interaction at 4 mg/mL
[13] = Inhibition of monoclonal antibody ADP358/HIV1 gp120 interaction at 0.8 mg/mL
[14] = Inhibition of monoclonal antibody ADP358/HIV1 gp120 interaction at 100 mg/mL

Row | inhibition [1] [%] | inhibition [2] [%] | inhibition [4] [%] | inhibition [5] [%] | EC50 [6] [µg/mL] | Activity [8] | inhibition [10] [%] | inhibition [11] [%] | inhibition [12] [%] | inhibition [13] [%] | inhibition [14] [%] | Compound | CC50 [3] [µg/mL] | Activity [7] [%] | Selectivity Index [9]
1 | 57 | 33 | 69 | 84 | 20 (≈ 63.6 µM) | Dose-dependent effect |  |  |  |  |  | O=C1O[C@H]2[C@H](O)[C@@H](O)[C@H](CO)O[C@@H]2c2c1cc(O)c(O)c2O [NORBERGENIN] | > 500 | 99 | >25
2 |  |  |  |  | 40 (≈ 122 µM) |  | 92 | 62 | 39 | 0 | 84 | COc1c(O)cc2c(c1O)[C@@H]1O[C@H](CO)[C@@H](O)[C@H](O)[C@H]1OC2=O [BERGENIN] | > 1000 |  | >25
3 |  |  |  |  | 200 (≈ 561 µM) |  |  |  |  |  |  | COc1cc2c(c(OC)c1OC)[C@H]1O[C@@H](CO)[C@H](O)[C@@H](O)[C@@H]1OC2=O | 250 (≈ 702 µM) |  | 1.25

Reference: ChEMBL document CHEMBL1158199, “Constituents of Ardisia japonica and their in vitro anti-HIV activity” (J Nat Prod, 1996)
